Assay results from patent publication US7304174B2, “CaSR antagonist” (Japan Tobacco Inc., priority 2003, dated 2007).

System: PTH secretion
Test: Concomitant administration of test compound and estrogen: blood PTH with time
Format: in vivo, ovariectomized rats
Conditions: for PTH (1–84) concentration 0.25 hr: day 16, 0.25 hr; for PTH (1–84) concentration 0.5 hr: day 16, 0.5 hr; for PTH (1–84) concentration 1 hr: day 16, 1 hr; for PTH (1–84) concentration 2 hr: day 16, 2 hr; for PTH (1–84) concentration 4 hr: day 16, 4 hr; for PTH (1–84) concentration 0 hr: day 16, immediately before oral administration
Protocol: The 13-week-old ovariectomized rats were divided into 4 groups of a control group (Group A), an estrogen administration group (Group B), a test compound administration group (Group C), and a test compound and estrogen concomitant administration group (Group D). One sham control group (E group) subjected to a sham surgery was also established. Estradiol was dissolved in 5% benzyl alcohol-corn oil and subcutaneously administered to an estrogen administration groups (Group B and Group D) at the dose of 10 μg/kg. 5% Benzyl alcohol-corn oil was subcutaneously administered to groups (Group A and Group C) free from administration of estrogen. The compound of Example 1-1 was suspended in 0.5% methyl cellulose solution and orally administered to groups (Group C and Group D) to be administered with the test compound at the dose of 3 mg/kg. As regards the groups (Group A and Group B) free from administration of the test compound, 0.5% methyl cellulose solution was orally administered.
In addition, blood was drawn with time for the measurement of blood PTH at day 16 of administration. The blood was drawn in each group from the tail vein immediately before oral administration and 0.25, 0.5, 1, 2 and 4 hr later, and serum was obtained. For serum PTH measurement, a commercially available ELISA kit (“rat intact PTH ELISA kit”, Immutopics) was used.

[1] = Group D concomitant with estradiol
[2] = exclusive administration (Group B estradiol; Group C Example 1-1 3 mg/kg oral)

With Cc1ccc(CC(C)(C)NC[C@@H](O)CO[C@H](C)c2ccccc2-c2ccc(C(=O)O)c(C)c2)cc1F [Example 1-1, 2′-[(1R)-[(2R)-3-[[1-(3-Fluoro-4-methylphenyl)-2-methylpropan-2-yl]amino]-2-hydroxypropoxy]ethyl]-3-methylbiphenyl-4-carboxylic acid] the “Change of blood PTH with time” value (Table 66, Example 1-1 and estrogen concomitant administration) was “a transitional increase was observed”, the “Change of blood PTH with time” value (Table 66, exclusive administration) was “a transitional increase was observed” and the “PTH (1–84) concentration 0.25 hr” value [1] was 407.35 ± 134.53 pg/mL. The “PTH (1–84) concentration 0.25 hr” value [2] was 371.21 ± 77.74 pg/mL, the “PTH (1–84) concentration 0.5 hr” value [1] was 418.87 ± 154.78 pg/mL and the “PTH (1–84) concentration 0.5 hr” value [2] was 370.78 ± 98.28 pg/mL. The “PTH (1–84) concentration 1 hr” value [1] was 279.76 ± 117.98 pg/mL, the “PTH (1–84) concentration 1 hr” value [2] was 177.39 ± 96.06 pg/mL and the “PTH (1–84) concentration 2 hr” value [1] was 115.50 ± 74.98 pg/mL. The “PTH (1–84) concentration 2 hr” value [2] was 117.51 ± 123.12 pg/mL, the “PTH (1–84) concentration 4 hr” value [1] was 58.84 ± 16.75 pg/mL and the “PTH (1–84) concentration 4 hr” value [2] was 56.50 ± 12.29 pg/mL. For the same compound, the “PTH (1–84) concentration 0 hr” value (Group D: Example 1-1 3 mg/kg oral and estradiol 10 μg/kg s.c. concomitant) was 27.12 ± 4.58 pg/mL and the “PTH (1–84) concentration 0 hr” value (exclusive administration (Group B estradiol 10 μg/kg s.c.; Group C Example 1-1 3 mg/kg oral)) was 31.19 ± 16.28 pg/mL.
